Values of other authors as cited in US20230240962A1, “METHOD FOR DYEING KERATINOUS MATERIAL, COMPRISING THE USE OF AN ORGANOSILICON COMPOUND, AN ALKYL(POLY)GLYCOSIDE, A DYEING COMPOUND AND A POST-TREATMENT AGENT” (Henkel AG & Co. KGaA, priority 2020, published 2023).

Details: 25° C.

Nc1cc(S(=O)(=O)[O-])cc2cc(S(=O)(=O)[O-])c(N=Nc3ccccc3)c(O)c12.[Na+].[Na+] [Acid Red 33, disodium salt of 5-amino-4-hydroxy-3-(phenylazo)-naphthalene-2,7-disulphonate]
solubility in water: 2500 µg/mL

O=C([O-])c1c(Cl)c(Cl)c(Cl)c(Cl)c1-c1c2c(Br)cc(=O)c(Br)c-2oc2c(Br)c(O)cc(Br)c12.O=C([O-])c1c(Cl)c(Cl)c(Cl)c(Cl)c1-c1c2c(Br)cc(=O)c(Br)c-2oc2c(Br)c(O)cc(Br)c12.[Na+].[Na+] [Acid Red 92, disodium salt of 3,4,5,6-tetrachloro-2-(1,4,5,8-tetrabromo-6-hydroxy-3-oxoxanthen-9-yl)benzoic acid]
solubility in water: greater than 10 g/L

CCN(Cc1cccc(S(=O)(=O)[O-])c1)c1ccc(C(=C2C=CC(=[N+](CC)Cc3cccc(S(=O)(=O)[O-])c3)C=C2)c2ccccc2S(=O)(=O)[O-])cc1.[Na+].[Na+] [Acid Blue 9]
solubility in water: more than 20 wt. %

O=C([O-])C1=NN(c2ccc(S(=O)(=O)[O-])cc2)C(=O)C1N=Nc1ccc(S(=O)(=O)[O-])cc1.[Na+].[Na+].[Na+] (centres unmarked) [Acid Yellow 23, trisodium salt of 4,5-dihydro-5-oxo-1-(4-sulfophenyl)-4-((4-sulfophenyl)azo)-1H-pyrazole-3-carboxylic acid]
solubility in water (in words): highly soluble

O=S(=O)([O-])c1ccc(N=Nc2c(O)ccc3ccccc23)cc1.[Na+] [Acid Orange 7, sodium salt of 4-[(2-hydroxy-1-naphthyl)azo]benzene sulphonate]
solubility in water: more than 7 g/L
